Article PMC8523698, “Preclinical characterization of an intravenous coronavirus 3CL protease inhibitor for the potential treatment of COVID19” (Nature Communications, 2021)
Where “and” joins values, the source holds several entries; their conditions need not be identical. Identical values can stand only once. Like-named read-outs stand apart in the source and are kept apart here.

What was measured:
CYP3A4/5 = assay: Reversible CYP inhibition in human liver microsomes; conditions: for IC50: at approximately KM
OATP1B1 = biological target: T1, OATP1B1 (Homo sapiens, UniProt Q9Y6L6); assay: Transporter inhibition using transfected HEK293 cells
T1 sequence (Q9Y6L6 1-691): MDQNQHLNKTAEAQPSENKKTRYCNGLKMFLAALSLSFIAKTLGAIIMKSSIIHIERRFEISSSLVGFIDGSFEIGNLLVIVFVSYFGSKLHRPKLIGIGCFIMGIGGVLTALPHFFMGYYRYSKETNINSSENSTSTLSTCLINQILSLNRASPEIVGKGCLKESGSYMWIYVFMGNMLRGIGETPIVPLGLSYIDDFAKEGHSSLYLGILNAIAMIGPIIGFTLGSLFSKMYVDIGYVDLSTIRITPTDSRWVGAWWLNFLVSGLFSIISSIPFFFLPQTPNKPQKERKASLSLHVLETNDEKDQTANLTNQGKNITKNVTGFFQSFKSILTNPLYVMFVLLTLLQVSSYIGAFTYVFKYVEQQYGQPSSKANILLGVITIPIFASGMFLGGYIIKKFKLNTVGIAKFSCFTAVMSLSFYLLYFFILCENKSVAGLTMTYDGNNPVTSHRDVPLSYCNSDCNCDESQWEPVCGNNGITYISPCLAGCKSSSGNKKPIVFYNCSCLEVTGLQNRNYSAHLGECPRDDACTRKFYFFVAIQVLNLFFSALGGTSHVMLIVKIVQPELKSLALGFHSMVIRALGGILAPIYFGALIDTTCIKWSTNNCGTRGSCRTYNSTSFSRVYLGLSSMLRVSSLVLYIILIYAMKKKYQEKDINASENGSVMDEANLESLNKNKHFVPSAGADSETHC

[1] = Secondary/off-target pharmacology panel (Eurofins Cerep); conditions: assessed at 100 µM

COc1cccc2[nH]c(C(=O)N[C@@H](CC(C)C)C(=O)N[C@@H](C[C@@H]3CCNC3=O)C(=O)CO)cc12 [PF-00835231]
Percent of Control Activity (CYP3A4/5; CYP 3A4/5 (mdz), 200 µM, 30-Minute Preincubation): 50.6% and 46.7% | Percent of Control Activity (CYP3A4/5; CYP 3A4/5 (mdz), 200 µM, Zero-Minute Preincubation): 109.5% | Percent of Control Activity (CYP3A4/5; CYP 3A4/5 (tst), 0.214 µM, 30-Minute Preincubation): 110.1% | Percent of Control Activity (CYP3A4/5; CYP 3A4/5 (tst), 0.214 µM, Zero-Minute Preincubation): 116.0% and 141.9% | Percent of Control Activity (CYP3A4/5; CYP 3A4/5 (tst), 0.979 µM, 30-Minute Preincubation): 122.3% | Percent of Control Activity (CYP3A4/5; CYP 3A4/5 (tst), 0.979 µM, Zero-Minute Preincubation): 120.0% and 100.0% | Percent of Control Activity (CYP3A4/5; CYP 3A4/5 (tst), 2.09 µM, 30-Minute Preincubation): 146.9% and 144.6% and 107.9% | Percent of Control Activity (CYP3A4/5; CYP 3A4/5 (tst), 2.09 µM, Zero-Minute Preincubation): 128.1% | Percent of Control Activity (CYP3A4/5; CYP 3A4/5 (tst), 4.48 µM, 30-Minute Preincubation): 142.0% and 164.4% | Percent of Control Activity (CYP3A4/5; CYP 3A4/5 (tst), 4.48 µM, Zero-Minute Preincubation): 92.4% and 117.7% and 97.0% | Percent of Control Activity (CYP3A4/5; CYP 3A4/5 (tst), 20.5 µM, 30-Minute Preincubation): 84.0% | Percent of Control Activity (CYP3A4/5; CYP 3A4/5 (tst), 20.5 µM, Zero-Minute Preincubation): 71.0% and 70.3% | Percent of Control Activity (CYP3A4/5; CYP 3A4/5 (tst), 43.8 µM, 30-Minute Preincubation): 71.6% | Percent of Control Activity (CYP3A4/5; CYP 3A4/5 (tst), 43.8 µM, Zero-Minute Preincubation): 96.7% | Percent of Control Activity (CYP3A4/5; CYP 3A4/5 (tst), 93.5 µM, 30-Minute Preincubation): 42.9% and 41.8% | Percent of Control Activity (CYP3A4/5; CYP 3A4/5 (tst), 93.5 µM, Zero-Minute Preincubation): 60.1% | Percent of Control Activity (CYP3A4/5; CYP 3A4/5 (tst), 200 µM, 30-Minute Preincubation): 26.6% | Percent of Control Activity (CYP3A4/5; CYP 3A4/5 (tst), 200 µM, Zero-Minute Preincubation): 39.6% and 35.7% | IC50 (CYP3A4/5; human, human liver microsomes, pH 7.4, probe midazolam (1′-hydroxylation), IC50, Midazolam 1′-hydroxylation, T0): > 200 µM | IC50 (CYP3A4/5; human, human liver microsomes, pH 7.4, probe midazolam (1′-hydroxylation), IC50, Midazolam 1′-hydroxylation, T30): > 200 µM | activity at 0.1 µM (CYP3A4/5; human, human liver microsomes, pH 7.4, probe midazolam (mdz), Percent of Control Activity, CYP 3A4/5 (mdz), 0.1 µM, 30-Minute Preincubation): 113% | activity at 0.214 µM (CYP3A4/5; human, human liver microsomes, pH 7.4, probe midazolam (mdz), Percent of Control Activity, CYP 3A4/5 (mdz), 0.214 µM, 30-Minute Preincubation): 111% | activity at 0.214 µM (CYP3A4/5; human, human liver microsomes, pH 7.4, probe midazolam (mdz), Percent of Control Activity, CYP 3A4/5 (mdz), 0.214 µM, Zero-Minute Preincubation): 107% | activity at 0.979 µM (CYP3A4/5; human, human liver microsomes, pH 7.4, probe midazolam (mdz), Percent of Control Activity, CYP 3A4/5 (mdz), 0.979 µM, 30-Minute Preincubation): 113% | activity at 0.979 µM (CYP3A4/5; human, human liver microsomes, pH 7.4, probe midazolam (mdz), Percent of Control Activity, CYP 3A4/5 (mdz), 0.979 µM, Zero-Minute Preincubation): 115% | activity at 2.09 µM (CYP3A4/5; human, human liver microsomes, pH 7.4, probe midazolam (mdz), Percent of Control Activity, CYP 3A4/5 (mdz), 2.09 µM, 30-Minute Preincubation): 112% | activity at 2.09 µM (CYP3A4/5; human, human liver microsomes, pH 7.4, probe midazolam (mdz), Percent of Control Activity, CYP 3A4/5 (mdz), 2.09 µM, Zero-Minute Preincubation): 100% | activity at 4.48 µM (CYP3A4/5; human, human liver microsomes, pH 7.4, probe midazolam (mdz), Percent of Control Activity, CYP 3A4/5 (mdz), 4.48 µM, 30-Minute Preincubation): 106% | activity at 43.8 µM (CYP3A4/5; human, human liver microsomes, pH 7.4, probe midazolam (mdz), Percent of Control Activity, CYP 3A4/5 (mdz), 43.8 µM, 30-Minute Preincubation): 88.1% | activity at 93.5 µM (CYP3A4/5; human, human liver microsomes, pH 7.4, probe midazolam (mdz), Percent of Control Activity, CYP 3A4/5 (mdz), 93.5 µM, 30-Minute Preincubation): 72.3% | activity at 93.5 µM (CYP3A4/5; human, human liver microsomes, pH 7.4, probe midazolam (mdz), Percent of Control Activity, CYP 3A4/5 (mdz), 93.5 µM, Zero-Minute Preincubation): 113% | activity at 200 µM (CYP3A4/5; human, human liver microsomes, pH 7.4, probe midazolam (mdz), Percent of Control Activity, CYP 3A4/5 (mdz), 200 µM, 30-Minute Preincubation): 54.3% | activity at 200 µM (CYP3A4/5; human, human liver microsomes, pH 7.4, probe midazolam (mdz), Percent of Control Activity, CYP 3A4/5 (mdz), 200 µM, Zero-Minute Preincubation): 107% | IC50 (CYP3A4/5; human, human liver microsomes, pH 7.4, probe testosterone (6β-hydroxylation), IC50 (confidence interval), Testosterone 6β-hydroxylation, T0): 108 µM | IC50 (CYP3A4/5; human, human liver microsomes, pH 7.4, probe testosterone (6β-hydroxylation), IC50 (confidence interval), Testosterone 6β-hydroxylation, T30): 62.4 µM | activity at 30 min, 0.1 µM (CYP3A4/5; human, human liver microsomes, pH 7.4, probe testosterone (tst), Percent of Control Activity, CYP 3A4/5 (tst), 0.1 µM, 30-Minute Preincubation): 92.1% | activity at 0.1 µM (CYP3A4/5; human, human liver microsomes, pH 7.4, probe testosterone (tst), Percent of Control Activity, CYP 3A4/5 (tst), 0.1 µM, Zero-Minute Preincubation): 88.6% | activity at 30 min, 0.214 µM (CYP3A4/5; human, human liver microsomes, pH 7.4, probe testosterone (tst), Percent of Control Activity, CYP 3A4/5 (tst), 0.214 µM, 30-Minute Preincubation): 115% | activity at 30 min, 0.979 µM (CYP3A4/5; human, human liver microsomes, pH 7.4, probe testosterone (tst), Percent of Control Activity, CYP 3A4/5 (tst), 0.979 µM, 30-Minute Preincubation): 116% | activity at 0 min, 0.979 µM (CYP3A4/5; human, human liver microsomes, pH 7.4, probe testosterone (tst), Percent of Control Activity, CYP 3A4/5 (tst), 0.979 µM, Zero-Minute Preincubation): 114% | activity at 0 min, 2.09 µM (CYP3A4/5; human, human liver microsomes, pH 7.4, probe testosterone (tst), Percent of Control Activity, CYP 3A4/5 (tst), 2.09 µM, Zero-Minute Preincubation): 109% | activity at 43.8 µM (CYP3A4/5; human, human liver microsomes, pH 7.4, probe testosterone (tst), Percent of Control Activity, CYP 3A4/5 (tst), 43.8 µM, 30-Minute Preincubation): 73.4% | activity at 43.8 µM (CYP3A4/5; human, human liver microsomes, pH 7.4, probe testosterone (tst), Percent of Control Activity, CYP 3A4/5 (tst), 43.8 µM, Zero-Minute Preincubation): 75.3% | activity at 93.5 µM (CYP3A4/5; human, human liver microsomes, pH 7.4, probe testosterone (tst), Percent of Control Activity, CYP 3A4/5 (tst), 93.5 µM, 30-Minute Preincubation): 37.7% | activity at 93.5 µM (CYP3A4/5; human, human liver microsomes, pH 7.4, probe testosterone (tst), Percent of Control Activity, CYP 3A4/5 (tst), 93.5 µM, Zero-Minute Preincubation): 54.9% | activity at 200 µM (CYP3A4/5; human, human liver microsomes, pH 7.4, probe testosterone (tst), Percent of Control Activity, CYP 3A4/5 (tst), 200 µM, 30-Minute Preincubation): 15.1% | activity at 200 µM (CYP3A4/5; human, human liver microsomes, pH 7.4, probe testosterone (tst), Percent of Control Activity, CYP 3A4/5 (tst), 200 µM, Zero-Minute Preincubation): 36.4% | IC50 (OATP1B1): 30.1 µM | IC50 (OATP1B1; human, HEK293 cells stably transfected with OATP1B1, pH 7.4, probe rosuvastatin (0.5 µM)): > 20 µM | secondary (off-target) pharmacology [1]: minimal potential for secondary (off-target) pharmacology
